Measured values reported in patent US20250282714A1, “COMPOSITIONS FOR AND METHODS OF MODULATING RNA STABILITY” (Duke University, priority 2022, published 2025).

System: MALAT1 triple helix
Assay: RiboGreen indicator displacement assay (IDA)
Type: binding, human
Settings: RiboGreen IDA
Method: The protocol was adapted from a previously reported procedure. (Donlic A, et al. (2020) Nucleic Acids Res. 48(14):7653-7664). A serial dilution of the MALAT1 triple helix RNA was performed in HEPES buffer (20 mM HEPES-KOH, 52.6 mM KCl, 0.1 mM MgCl2, pH=7.4) in a 96 well plate in triplicate. […] of each dilution were transferred to a 384 well plate followed by […] of a 500 nM solution of RiboGreen dye in the same buffer (Invitrogen™). The plates were excited at 487 nm (8 nm slit) and emission was recorded at 530 nm (8 nm slit, focal height 11.3 mm) using a CLARIOstar plate reader (BMG labtech). The affinity of the dye for the RNA construct was determined by fitting the raw fluorescence in GraphPad Prism version 8.3.1 for Macintosh (GraphPad Software, La Jolla California USA, (www.graphpad.com)) by fitting to the Log[Agonist] vs. response—variable slope model that using Equation (1) below.
where Y is normalized % change in fluorescence intensity, X is RNA concentration, Bottom is lowest fluorescence % change and Top is highest fluorescence % change. Affinity of the dye for the RNA construct was used as the ideal RNA concentration (174 nM) for small molecule titrations.
A serial dilution of small molecule (0, 0.5 μM, 1.0 μM, 2.5 μM, 5 μM, 7.5 μM, 10.0 μM, 12.5 μM, 25 μM, 50 µM, 75 μM, 100 μM, 125 μM, 150 μM, 250 μM, 500 µM) was performed in HEPES buffer (20 mM HEPES-KOH, 52.6 mM KCl, 0.1 mM MgCl2, pH=7.4) in a 96 well plate in triplicate. Then, 8 μL of each dilution were transferred to a 384 well plate, followed by 8 μL of a 174 nM solution of MALAT1 RNA and […] of RiboGreen™ (Invitrogen™). The RNA was previously annealed by heating to 95° C. for 5 minutes and cooling to 0° C. on ice for 30 minutes. The 384 well plates were shaken for 5 minutes, centrifuged at 4000 rpm for 1 minute, and incubated in the dark for 20 minutes. The plates were excited at 487 nm (8 nm slit) and emission was read at 525 nm (8 nm slit, focal height […]) using a CLARIOstar plate reader (BMG Labtech). Percent fluorescence indicator displacement (% FID) was calculated by subtracting and, subsequently, dividing by the blank wells with RNA-dye complex and no small molecule as shown in Equation (2).
Where Fo is the fluorescence of the blank well with RNA+dye and no small molecule and F is the fluorescence of the well with all three components (RNA+dye+small molecule).
Each technical triplicate was averaged, and the resulting FID values were averaged between three independent experiments. The binding curve and Log (CD50) value was obtained by using a non-linear fit curve (Log[Agonist] vs. response) with variable slope at four parameters (GraphPad Prism Software version for Macintosh 8.3.1, La Jolla, California, USA (www.graphpadprism.com)) as shown in Equation 1. Reported values are averages of three independent experiments=standard deviation.
Given the structural differences between secondary and tertiary structures, where more continuous and complex base-pairing occurs, the design and optimization of an RNA triple helix IDA amenable to HTS was the first focused on. The utility of RiboGreen™ dye was confirmed as an indicator. The RiboGreen™ structure is proprietary, and stoichiometry is thus unconfirmed. Upon assay optimization, the 21-member library was screened using a 16-point titration in three independent replicates (FIG. 2A, FIG. 12A-FIG. 12U).

**Q.** `N=C(NCc1ccccc1)c1cccc(/N=N/Nc2cccc(C(=N)NCc3ccccc3)c2)c1` [DMZ-M4] was tested. Which “affinity for the MALAT1 triple helix (in words)” value did it give?
**A.** The value was “mediocre affinity”.
